“Also recorded” adds a separate entry of the source. Residues, ends and D or L forms follow the SMILES beside them.
Key:
[1] = system: cancer cells; assay: CT20p activities in cancer cells (timeline); type: cell-based
Method: FIGS. 18A-18J illustrate a timeline of CT20p activities in cancer cells. […] Gates are N, necrotic; V, viable; A, apoptotic. Percentages are V (black) and N+A (red). FIG. 18E is a graph showing that by 6 hours, cells detach from the substrate (fibronectin). Such cell detachment was measured using a crystal violet adhesion assay.
(§1) Recently, a mitotoxic peptide that kills cancer cells was discovered. […] Cell death (anoikis), indicated by membrane asymmetry, was detectable in cancer cells by 48 hours (FIG. 18J). […] These findings indicate that CT20p impairs cancer cell invasiveness through its actions on mitochondria and the cytoskeleton, which causes detachment-induced cell death.

[2] = system: normal cells; assay: CT20p in normal cells / control epithelial cell line; type: cell-based
Method: as §1

[3] = system: PSMA-expressing PCa cells; assay: Effects of CT20p upon cell adhesion and anoikis; type: cell-based
Method: An essential activity that promotes the invasiveness of metastatic cells is rearrangement of the cytoskeleton, which can be linked to integrin signaling. […] At selected time points, PCa cells (Table 1) as well as control cells were treated with Mitotracker Red to visualize mitochondria and then were fixed on coverslips for staining with Alexa Fluor™ 647 phalloidin, a high-affinity F-actin probe, or Deoxyribonuclease I, Alexa Fluor™ 488-conjugate for G-actin for imaging by confocal microscopy (Zeiss 710). To examine how integrin signaling was impaired by CT20p, the surface expression of integrins detected with fluorescence-conjugated antibodies (β1, CD29 and αVβ3, CD51/61) by flow cytometry, was examined. Levels of additional integrins (αV or α5) were also evaluated by immunoblotting cell lysates. To determine whether cell detachment and the reduction in integrin levels could activate anoikis, the CytoSelect® 96-well Anoikis Assay Kit was used and standard assays of cell migration and invasion were performed. Additionally, to test the effects of CT20p under conditions of directed migration, the cells described above were treated with conditioned media from 3T3 cells, which contains chemotactic factors.

[4] = system: cancer cells; conditions: expression or introduction of CT20p in cancer cells; cited from earlier work
[5] = system: cells; conditions: cited from earlier work
[6] = system: PSMA(+) PC3 tumors; conditions: two week experiment (FIG. 22D)
Method: FIG. 22A depicts an image of mice that were injected subcutaneously (SC) with PSMA(+) (right flank) or PSMA(−) (left flank) PCa tumor cells. Upon tumor detection (˜2 weeks), the mice were injected intravenously (IV) with PEG-(FOL)-HBPE-NPs (2 mg/kg/dose) containing a near IR dye (FIG. 22A) or CT20p (FIG. 22B). Mice were imaged after 24 hours (FIG. 22A) or sacrificed after 10 days (FIG. 22B). […] FIG. 22D is a graph that summarizes a two week experiment in which mice (n=5) bearing PSMA+ tumors (SC) were IV injected once per week with FOL-HBPE-NPs (2 mg/kg/dose) that were empty or had CT20p and were compared to COOH-NPs (untargeted) with CT20p or FOL-targeted doxorubicin (DOX). *p<0.05. The mice were euthanized before the tumors ulcerated.

[7] = system: macrophages (RAW cells); assay: Cell death of non-transformed cells (Sytox analysis); type: cell-based
Method: FIGS. 21A-21J show dose- (FIGS. 21A, 21C) and time- (FIGS. 21D, 21F) dependent cytotoxicity assay of PCa cells treated with Folate.HBPE(Dil)-NPs. PCa Cells: LNCap (FIGS. 21A, 21D), PSMA(+) PC3 (FIGS. 21B, 21E) and PC3 (FIGS. 21C, 21F). […] V, viable; N, necrotic, A, apoptotic.
To study any effect that folate-HBPE (CT20p)-NPs may have on non-transformed cells, macrophages (RAW cells) were incubated with the folate-HBPE(CT20p)-NPs and cell death was assessed.

[8] = system: PCa primary tumors and metastatic lesions
Method: Results were compared with those obtained with free doxorubicin or folate-ss-doxorubicin. Again, the lead HBPE-NP preparations from Experiment 2 were used. Male SCID mice were used that are either intact or castrated and treated with testosterone (SC) or DHT pellet. SCID mice were injected SC with luciferase expressing LNCaP cells and, upon tumor growth, D-luciferin was injected prior to imaging (IVIS, Perkin Elmer). In all experiments, NPs without targeting ligand or without CT20p were used as controls. Mice were injected once every week, for 3-4 weeks, with control DFO-HBPE-NPs or PSMA-targeted DFO-HBPE(CT20p)-NPs. Tumor growth was monitored by measuring the tumor size using a caliper or by ultrasound as well as by bio-luminescence as described above. In addition, blood was collected for weekly PSA measurements (with a commercially available ELISA), using the value prior to therapy as a baseline. The tumors were followed for 6 weeks or until reaching 1.5 cm in size (whichever came first). At experimental endpoints, remaining tumor tissue, as well as liver, spleen, kidney, lungs and brain, were collected and examined by immunohistochemistry (using J591 to identify PSMA) and also qRT-PCR and quantitative Western Blot for PSMA levels in the tumor to correlates with response to the targeted therapy. […]

[9] = system: PSMA positive LNCaP cells; conditions: LNCaP cell viability
Description: The amount of encapsulated abiraterone was estimated following a reported protocol and defined as encapsulation efficiency.

[10] = by 24 hours post-CT20p treatment

For `CC[C@H](C)[C@H](NC(=O)[C@@H](NC(=O)[C@H](CC(C)C)NC(=O)[C@H](CO)NC(=O)[C@H](C)NC(=O)[C@@H](NC(=O)[C@H](CC(C)C)NC(=O)[C@@H](NC(=O)CNC(=O)[C@H](C)NC(=O)[C@@H](NC(=O)[C@H](Cc1ccccc1)NC(=O)[C@@H](NC(=O)[C@@H](NC(=O)[C@@H](NC(C)=O)C(C)C)[C@@H](C)O)[C@@H](C)CC)C(C)C)C(C)C)[C@@H](C)O)[C@@H](C)O)C(=O)N[C@@H](Cc1c[nH]c2ccccc12)C(=O)N[C@@H](CCCCN)C(=O)N[C@@H](CCCCN)C(=O)N[C@@H](CCSC)C(=O)NCC(N)=O` [CT20p] (Ac-VTIFVAGVLTASLTIWKKMG-NH2), the “concentration range in which the peptide works” value [1] was “nanomolar range”, the ROS production [1, 10] was “increased ROS production” and the autophagy [1, 10] was “induction of autophagy”. For the same molecule, the caspases [1, 10] was “activation of caspases”, the mitochondrial membrane effect ([1]; cancer cells) was “hyperpolarization of the mitochondrial membrane and fusion-like aggregation; also recorded: mitochondrial membranes hyperpolarize and fuse” and the “β1 integrin surface level” value ([1]; prior to cell detachment) was “decreased surface expression of β1 integrin; also recorded: membrane levels of β1 integrin decreased”. For the same molecule, the “co-localization of peptide with mitochondria” value ([1]; ˜3.4 nM CT20p in NPs, cancer cells) was “co-localization of the peptide (red) with mitochondria (green) was detected”, the “mitochondrial localization, autophagosome formation or cell death” value ([2]; control epithelial cell line) was “not observed” and the cell death ([2]; normal cells (FIG. 19C)) was “minimal cell death was detected”. For the same molecule, the “F-actin and integrin signaling” value [3] was “loss of F-actin and reduced integrin signaling”, the “block of cell death by Bcl-2 overexpression, Bax deficiency or caspase inhibition” value [4] was “minimally blocked it” and the uptake by cells [5] was “not taken up by cells”. The “efficacy in PSMA+ tumors” value [6] was “more effective than drugs like Doxoyrubucin”.

With `COc1cccc2c1C(=O)c1c(O)c3c(c(O)c1C2=O)C[C@@](O)(C(=O)CO)C[C@@H]3O[C@H]1C[C@H](N)[C@H](O)[C@H](C)O1` [Doxorubicin] the toxicity to macrophages [7] was “death of macrophages was observed”, the tumor regression ([8]; also castration and hormone signaling conditions) was “Tumor regression also occurs” and the off-target toxicity ([8]; mouse, in vivo) was “off-target toxicity was observed”.

`C[C@]12CC[C@H](O)CC1=CC[C@@H]1[C@@H]2CC[C@]2(C)C(c3cccnc3)=CC[C@@H]12` [abiraterone] gave an IC50 [9] of 2550 nM.

From patent US10973925B2, “Methods and compositions for theranostic nanoparticles” (University of Central Florida Research Foundation, Inc., priority 2015, dated 2021)
